According to US6979686B1, “Substituted pyrazoles as p38 kinase inhibitors” (Pharmacia Corporation, priority 2001, dated 2005):

Experiments:
human p38 kinase alpha = target: T1, human p38 kinase alpha (Homo sapiens, UniProt Q16539); test: p38 kinase in vitro assay, phosphorylation of biotinylated PHAS-I with 32P-ATP; format: biochemical; settings: for IC50: in vitro P38-alpha kinase inhibition, read-out: P38 alpha kinase IC50
T1 construct: GST (N, cleaved yes); made in house; host or cells: E. coli DH10B

[1] = system: TNF-α, U937 human histiocytic lymphoma cell line; test: LPS stimulation of TNF production by U937 cells; format: cell-based; settings: for IC50 / inhibition at 1 µM: Homo sapiens; for IC50: U-937, TNF production, human U937 cells stimulated with LPS, read-out: U937 Cell IC50; for inhibition at 1 µM: U-937, @ 1.0 uM, read-out: U937 Cell % inhib @ conc.; for inhibition at 1 µM / U937 Cell % inhib @ conc. (uM): TNF production, U937 cells stimulated with LPS; for U937 Cell % inhib @ conc. (uM): @ 1.0 uM
Outline: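 U937 cells differentiated 24 h with 20 ng/ml PMA, rested 24-48 h, used at 2 million cells/ml. Compounds in 0.1% DMSO final; LPS (E. coli, 100 ng/ml final) stimulation for 4 h at 37° C. Released TNF-α measured by ELISA; IC50 (μM).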

T1 sequence (Q16539 whole entry): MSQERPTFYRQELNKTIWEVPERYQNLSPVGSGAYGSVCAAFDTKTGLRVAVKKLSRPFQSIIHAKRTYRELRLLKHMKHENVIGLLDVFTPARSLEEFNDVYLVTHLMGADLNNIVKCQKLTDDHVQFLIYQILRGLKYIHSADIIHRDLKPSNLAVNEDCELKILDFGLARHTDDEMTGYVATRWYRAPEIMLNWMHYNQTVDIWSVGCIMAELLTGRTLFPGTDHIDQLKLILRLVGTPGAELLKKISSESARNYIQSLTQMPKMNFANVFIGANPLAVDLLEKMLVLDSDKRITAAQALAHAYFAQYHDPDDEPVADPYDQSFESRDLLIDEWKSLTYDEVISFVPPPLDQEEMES

| Compound | IC50 (human p38 kinase alpha) [nM] | inhibition at 1 µM [1] [%] | P38 alpha kinase % inhib @ conc. (uM) (human p38 kinase alpha; @ 1.0 uM) [% @] | U937 Cell % inhib @ conc. (uM) [1] [% @] | other results |
| --- | --- | --- | --- | --- | --- |
| COc1ccccc1C(=O)NC(Cc1ccccc1)c1[nH]nc(-c2ccc(F)cc2)c1-c1ccncc1 (centres unmarked) [Example B-0843] | 610 | – | – | – | IC50 [1]: > 1000 nM |
| O=C(NC(Cc1ccccc1)c1[nH]nc(-c2ccc(F)cc2)c1-c1ccncc1)c1ccccc1C(F)(F)F (centres unmarked) [Example B-0844] | 400 | 25 | – | – | – |
| COc1ccc(CC(=O)NC(Cc2ccccc2)c2[nH]nc(-c3ccc(F)cc3)c2-c2ccncc2)cc1OC (centres unmarked) [Example B-0847] | 730 | 21 | – | – | – |
| CNC(=O)CCC(NC(=O)C(C)C)c1[nH]nc(-c2ccc(F)cc2)c1-c1ccncc1 (centres unmarked) [Example B-0863] | 810 | 25 | – | – | – |
| CNC(=O)CCC(NC(=O)C1CC1)c1[nH]nc(-c2ccc(F)cc2)c1-c1ccncc1 (centres unmarked) [Example B-0866] | 1380 | 28 | – | – | – |
| CNC(=O)CCC(NC(=O)c1cccc(Br)c1)c1[nH]nc(-c2ccc(F)cc2)c1-c1ccncc1 (centres unmarked) [Example B-0867] | 620 | – | – | – | IC50 [1]: > 1000 nM |
| CNC(=O)CCC(NC(=O)c1ccno1)c1[nH]nc(-c2ccc(F)cc2)c1-c1ccncc1 (centres unmarked) [Example B-0869] | 4190 | – | – | – | IC50 [1]: > 1000 nM |
| CNC(=O)CCC(NC(=O)COC)c1[nH]nc(-c2ccc(F)cc2)c1-c1ccncc1 (centres unmarked) [Example B-0870] | 3130 | – | – | – | IC50 [1]: > 1000 nM |
| CNC(=O)CCC(NC(=O)c1ccccc1OC)c1[nH]nc(-c2ccc(F)cc2)c1-c1ccncc1 (centres unmarked) [Example B-0871] | 1900 | – | – | – | IC50 [1]: > 1000 nM |
| CNC(=O)CCC(NC(=O)Cc1cccc(OC)c1)c1[nH]nc(-c2ccc(F)cc2)c1-c1ccncc1 (centres unmarked) [Example B-0872] | 3130 | 3 | – | – | – |
| CNC(=O)CCC(NC(=O)c1ccc(C)cc1)c1[nH]nc(-c2ccc(F)cc2)c1-c1ccncc1 (centres unmarked) [Example B-0873] | 6920 | – | – | – | IC50 [1]: > 1000 nM |
| CNC(=O)CCC(NC(=O)c1ccccc1F)c1[nH]nc(-c2ccc(F)cc2)c1-c1ccncc1 (centres unmarked) [Example B-0874] | 1920 | – | – | – | IC50 [1]: > 1000 nM |
| CNC(=O)CCC(NC(=O)c1ccncc1)c1[nH]nc(-c2ccc(F)cc2)c1-c1ccncc1 (centres unmarked) [Example B-0875] | 2130 | 8 | – | – | – |
| CNC(=O)CCC(NS(=O)(=O)Cc1ccccc1)c1[nH]nc(-c2ccc(F)cc2)c1-c1ccncc1 (centres unmarked) [Example B-0876] | 890 | – | – | – | IC50 [1]: > 1000 nM |
| CCS(=O)(=O)NC(CCC(=O)NC)c1[nH]nc(-c2ccc(F)cc2)c1-c1ccncc1 (centres unmarked) [Example B-0877] | 1170 | 13 | – | – | – |
| CNC(=O)CCC(NS(=O)(=O)c1ccccc1F)c1[nH]nc(-c2ccc(F)cc2)c1-c1ccncc1 (centres unmarked) [Example B-0879] | 870 | 1 | – | – | – |
| CNC(=O)CCC(NC(=O)Nc1ccccc1F)c1[nH]nc(-c2ccc(F)cc2)c1-c1ccncc1 (centres unmarked) [Example B-0881] | 1360 | – | – | – | IC50 [1]: > 1000 nM |
| CNC(=O)CCC(NC(=O)Nc1c(C)cccc1C)c1[nH]nc(-c2ccc(F)cc2)c1-c1ccncc1 (centres unmarked) [Example B-0882] | 1480 | 9 | – | – | – |
| CCNC(=O)NC(CCC(=O)NC)c1[nH]nc(-c2ccc(F)cc2)c1-c1ccncc1 (centres unmarked) [Example B-0883] | 1060 | – | – | – | IC50 [1]: > 1000 nM |
| O=C(NCCc1[nH]nc(-c2ccc(F)cc2)c1-c1ccncc1)NC(=O)c1ccccc1 [Example B-0934] | – | – | 67.0 | 36.0 | – |
| O=C(NCCc1[nH]nc(-c2ccc(F)cc2)c1-c1ccncc1)Nc1ccc(Br)cc1 [Example B-0938] | – | – | 51.0 | 29.0 | – |
| O=C(NCCc1[nH]nc(-c2ccc(F)cc2)c1-c1ccncc1)NCc1ccccc1 [Example B-0939] | – | – | 78.0 | 14.0 | – |
| CCOC(=O)c1cccc(NC(=O)NCCc2[nH]nc(-c3ccc(F)cc3)c2-c2ccncc2)c1 [Example B-0942] | – | – | 82.0 | 2.0 | – |

| Compound | IC50 (human p38 kinase alpha) [nM] | inhibition at 1 µM [1] [%] | P38 alpha kinase % inhib @ conc. (uM) (human p38 kinase alpha; @ 1.0 uM) [% @] | U937 Cell % inhib @ conc. (uM) [1] [% @] | other results |
| --- | --- | --- | --- | --- | --- |
| O=C(NCCc1[nH]nc(-c2ccc(F)cc2)c1-c1ccncc1)Nc1ccc(Cc2ccccc2)cc1 [Example B-0943] | – | – | – | 24.0 | P38 alpha kinase % inhib @ conc. (uM) (human p38 kinase alpha; @ 10.0 uM): 63.0% @ |
| COC(=O)c1ccccc1NC(=O)NCCc1[nH]nc(-c2ccc(F)cc2)c1-c1ccncc1 [Example B-0946] | – | – | 76.0 | 31.0 | – |
| CCOC(=O)C(NC(=O)NCCc1[nH]nc(-c2ccc(F)cc2)c1-c1ccncc1)C(C)C (centres unmarked) [Example B-0976] | – | – | 79.0 | 36.0 | – |
| COc1ccc(NC(=O)NCCc2[nH]nc(-c3ccc(F)cc3)c2-c2ccncc2)cc1 [Example B-0978] | – | – | 59.0 | 36.0 | – |
| O=C(NCCc1[nH]nc(-c2ccc(F)cc2)c1-c1ccncc1)Nc1cccc(Cl)c1Cl [Example B-0980] | – | – | 68.0 | 31.0 | – |
| COc1ccccc1C(=O)NCCc1[nH]nc(-c2ccc(F)cc2)c1-c1ccncc1 [Example B-0995] | – | – | 53.0 | 14.0 | – |
| O=C(NCCc1[nH]nc(-c2ccc(F)cc2)c1-c1ccncc1)c1ccc(F)c(F)c1F [Example B-0997] | – | – | 69.0 | 22.0 | – |
| CC(C)=CC(=O)NCCc1[nH]nc(-c2ccc(F)cc2)c1-c1ccncc1 [Example B-0998] | – | – | 67.0 | 25.0 | – |
| COc1ccc(CC(=O)NCCc2[nH]nc(-c3ccc(F)cc3)c2-c2ccncc2)cc1OC [Example B-0999] | – | – | 61.0 | 24.0 | – |
| COc1cccc(CC(=O)NCCc2[nH]nc(-c3ccc(F)cc3)c2-c2ccncc2)c1 [Example B-1001] | – | – | 63.0 | 31.0 | – |
| O=C(NCCc1[nH]nc(-c2ccc(F)cc2)c1-c1ccncc1)c1ccccc1 [Example B-1003] | – | – | 74.0 | 29.0 | – |
| O=S(=O)(NCCc1[nH]nc(-c2ccc(F)cc2)c1-c1ccncc1)c1ccc(F)cc1 [Example B-1013] | – | – | 85.0 | 7.0 | – |
| O=S(=O)(C=Cc1ccccc1)NCCc1[nH]nc(-c2ccc(F)cc2)c1-c1ccncc1 [Example B-1016] | – | – | 58.0 | 10.0 | – |
| O=S(=O)(NCCc1[nH]nc(-c2ccc(F)cc2)c1-c1ccncc1)c1ccccc1F [Example B-1020] | – | – | 87.0 | 36.0 | – |
| Cc1ccc(S(=O)(=O)NCCc2[nH]nc(-c3ccc(F)cc3)c2-c2ccncc2)cc1 [Example B-1027] | – | – | 58.0 | 18.0 | – |
| C[C@@H](NC(=O)NCCc1[nH]nc(-c2ccc(F)cc2)c1-c1ccncc1)c1ccccc1 [Example B-1045] | – | – | 78.0 | 25.0 | – |
| CC(=O)Nc1ccc(S(=O)(=O)NCCc2[nH]nc(-c3ccc(F)cc3)c2-c2ccncc2)cc1 [Example B-1059] | 180 | 24 | – | – | – |
| O=S(=O)(NCCc1[nH]nc(-c2ccc(F)cc2)c1-c1ccncc1)c1ccc2ccccc2c1 [Example B-1068] | 480 | 24 | – | – | – |
| CN(C)c1cccc2c(S(=O)(=O)NCCc3[nH]nc(-c4ccc(F)cc4)c3-c3ccncc3)cccc12 [Example B-1072] | 380 | 28 | – | – | – |
| O=S(=O)(NCCc1[nH]nc(-c2ccc(F)cc2)c1-c1ccncc1)c1cccc(Cl)c1Cl [Example B-1073] | < 100 | 21 | – | – | – |
| Cc1c(Cl)cccc1S(=O)(=O)NCCc1[nH]nc(-c2ccc(F)cc2)c1-c1ccncc1 [Example B-1075] | 30 | 29 | – | – | – |
| O=S(=O)(NCCc1[nH]nc(-c2ccc(F)cc2)c1-c1ccncc1)c1ccc(Cl)cc1Cl [Example B-1076] | 80 | 31 | – | – | – |
| O=S(=O)(NCCc1[nH]nc(-c2ccc(F)cc2)c1-c1ccncc1)c1cc(Cl)c(Cl)s1 [Example B-1080] | 190 | 28 | – | – | – |
